# Assay results: PubChem BioAssay AID2305 (GlaxoSmithKline (GSK), 2010)
# Tested on: P. falciparum 3D7 growth, pLDH absorbance
# Test: P. falciparum 3D7 growth inhibition, dose response, strain 3D7 (AID 2305)
row,Compound,IC50 [nM]
1,N=c1n(Cc2ccc(Cl)cc2)c2ccccc2n1CC(O)c1ccc(Cl)c(Cl)c1 (centres undefined),680
2,Cn1c(Sc2ncnc3sccc23)nc2ccccc21,190
3,COC(=O)c1ccc(NC(=O)Nc2ccc(Cn3ncc(N4CCCNCC4)c(Cl)c3=O)cc2)cc1,600
4,O=C(Nc1ccc(C(F)(F)F)cc1)c1ccc(S(=O)(=O)NC2CCN(CC3CCCCC3)CC2)cc1,730
5,COc1cc2nc(N3CCC(CNC(=O)c4cc(Br)c(Br)s4)CC3)nc(N)c2cc1OC,710
6,Cc1cc(N[C@@H](CC(C)C)C(=O)NCc2cccs2)nc(NCCc2ccccc2)n1,1190
7,COc1ccccc1CCN(C)CCN1CCC(NC(=O)c2ccc(-c3ccc(C(F)(F)F)cc3)cc2)CC1,1030
8,CC(CN(C)C)C(=O)Nc1cccc(-c2ccc(-c3nc4ccc(C(F)(F)F)cc4[nH]3)cc2)c1 (centres undefined),250
9,CCn1c(Sc2ccc(C#N)c([N+](=O)[O-])c2)nnc1-c1ccc(OC)cc1,810
10,NC(N)=NN=Cc1ccc2c(c1)Cc1ccccc1-2,590
11,CN(C)CCN(Cc1ccccc1)c1ccc([N+](=O)[O-])cc1C(F)(F)F,780
12,CCN(CC)CCN(Cc1ccc(-c2ccc(C(F)(F)F)cc2)cc1)C(=O)Cn1cc(Cc2cnn(C)c2)c(=O)n2nc(-c3ccccc3)cc12,730
13,O=C(Nc1ccc(-c2cccc(-c3nc4ccc(C(F)(F)F)cc4[nH]3)c2)cc1)c1ccoc1,830
14,CN(C)C(=O)CC(=O)NCc1cccc(Cl)c1,710
15,CC1(C)CCCN(Cc2c(O)ccc3c(=O)c(-c4nc5ccccc5s4)c(N)oc23)C1,340
16,O=C(/C=C/c1ccc(Cl)c(Cl)c1)NCCCCCN1CCC(NC(=O)NC2CCCCCC2)CC1,460
17,CN(C)CC(=O)Nc1ccc(-c2ccc3ccnc(N)c3c2)cc1,30
18,FC(F)(F)c1ccc2nc(-c3ccc(-c4cccc(CNCCc5cccnc5)c4)s3)[nH]c2c1,170
19,NC(=O)c1ccc(C(=O)Nc2cccc(-c3cccc(-c4nc5ccc(C(F)(F)F)cc5[nH]4)c3)c2)cc1,230
20,Cc1cccc2[nH]c(-c3ccc(-c4cccc(NC(=O)COc5ccccc5C(N)=O)c4)s3)nc12,730
21,CO/N=C(\C)c1ccc2c(c1)CCN(CCC1CCC(NC(=O)c3cccc(-c4noc(C)n4)c3)CC1)CC2 (centres undefined),240
22,CCCCCCCc1c(C)[nH]c2c(OC)cccc2c1=O,920
23,COc1ccc2nccc(NN=Cc3ccncc3)c2c1,580
24,COc1ccc2ccccc2c1CON1C(N)=NC(N)=NC1(C)C,30
25,COc1ccc(CN(C)CCCOc2ccc(NC(=O)C=Cc3ccc(C(C)(C)C)cc3)cc2)cc1OC,860

row,Compound,IC50 [nM]
1,CCc1cn(CCS(C)(=O)=O)c2ccc(C(=O)N[C@@H](Cc3ccccc3)[C@H](O)CNC(C)(C)CCCC(C)C)cc12,880
2,O=S(=O)(c1ccc(OC(F)(F)F)cc1)C1C[C@H]2CC[C@@H](C1)N2S(=O)(=O)c1ccc(Cl)c(C(F)(F)F)c1 (some centres undefined),560
3,Cc1nc2nc(N)nc(N)c2c(C)c1Cc1ccccc1Br,60
4,CC(=O)Nc1ccc(C(=O)NC2CCN(c3ccnc4cc(Cl)ccc34)CC2)cc1,360
5,CC1(C)N=C(N)N=C(N)N1OCc1ccc2ccccc2c1CON1C(N)=NC(N)=NC1(C)C,660
6,Oc1ccc(Nc2nc(NCc3ccco3)c3ccccc3n2)cc1,670
7,CCCCC(CCCC)CN1C(=O)C(c2ccccc2)(c2ccccc2)N=C1N,180
8,CN1CCC(N2CCN(CCOc3cc(NC(=O)/C=C/c4ccccc4Cl)ccc3Br)CC2)CC1,360
9,COc1ccccc1N1CCN(C(C(=O)NCc2ccc3c(c2)OCO3)c2ccc3c(c2)OCCCO3)CC1 (centres undefined),1120
10,O=C(Cc1ccc(F)cc1)NC1CCN(c2ccnc3cc(Cl)ccc23)C1 (centres undefined),480
11,CC(C)C[C@H](NC(=O)c1cc2ccccc2s1)C(=O)N[C@H]1CCN(Cc2ccc(OC[C@@H]3CCCN3C)c3ccccc23)C1,1160
12,CCCCCN=C(N)c1ccc(OCCCCCOc2ccc(C(N)=NCCCCC)cc2)cc1,250
13,COc1ccc2nccc([C@@H](O)CN3CCC(NC(=O)C(c4cc5ccccc5o4)N4CCN(Cc5ccccc5)CC4)CC3)c2c1 (some centres undefined),160
14,Cc1cc2[nH]c(-c3ccc(C(=O)NCCCN4CCN(c5cccc(Cl)c5)CC4)s3)nc2cc1Cl,650
15,CC(C)c1ccc(C=CC(=O)N2CCC(CCN3CCC(c4c[nH]c5ccccc45)CC3)CC2)cc1,1260
16,COc1cccc2cc(C(=O)N[C@@H](CC(C)C)C(=O)N[C@H](/C=N/NC(=O)c3ccccc3)Cc3cnc[nH]3)oc12,130
17,O=C(NC1CCC(N2CCC(c3ccccc3C(F)(F)F)CC2)CC1)c1cc2ccccc2[nH]1 (centres undefined),520
18,CCN(CCCN1CCCC1)c1cc(C)nc(Nc2ccc(Cl)cc2)n1,340
19,Cc1cccc(Cl)c1S(=O)(=O)Nc1cccc(CCN2CCC(N3CCCCC3)CC2)c1,1110
20,CCCCCN1CCCN(Cc2cccc(NC(=O)c3ccc(Cl)c(Cl)c3)c2)CC1,930
21,C#CC[C@@H](NC(N)=O)C(=O)O,190
22,COc1ccc(Oc2ccc(Nc3ccnc4ccc(C(F)(F)F)cc34)cc2)cc1OC,1060
23,Cc1cc(Nc2ccccc2)nc(NCCOc2ccccc2)n1,730
24,NCc1ccc(CNCc2cccc(-c3cccc(-c4nc5ccccc5[nH]4)c3)c2)cc1,490
